Here are results for 14 compounds from patent US11834420B2, “Preparation method of pyrimidinylthio-benzoate oxime ester compound and application thereof as herbicide” (CHANGZHOU UNIVERSITY, priority 2019, dated 2023).

Structures are written as SMILES.

One data set deals with Portulaca oleracea. Put plainly: Pot experiment, indoor herbicidal activity (stem and leaf spray). It counts as in vivo. As to conditions: fresh weight inhibition rate, 45 g a.i/hm^2, stem and leaf spray, 21st day after applying. The procedure:
(§1) 20 mg of the pyrimidinylthio-benzoate compound active pharmaceutical ingredients (APIs) is weighed with a 1/10,000 analytical balance, dissolved with acetone (or DMF or DMSO), and diluted with a 0.1% Tween-80 aqueous solution to a concentration of 45 g a.i/hm^2.
(§2) The test soil is quantitatively filled to 4/5 of the pot, and subirrigation method is adopted at a bottom of the pot to moisten the soil. The test weed seeds are sown on the soil surface and cultivated in a greenhouse. When the gramineous weeds grow to 3-4 leaf stage and broadleaf weeds grow to 4-6 leaf stage, a stem and leaf spray method is used for treatment. On the 21st day after applying the herbicide, the above-ground part is taken to weigh the fresh weight, and the fresh weight inhibition rate is calculated according to the formula. Fresh weight inhibition rate (%)=(control fresh weight−treated fresh weight)/control fresh weight×100%
(§3) Pyrithiobac-sodium is used as a positive control. The herbicidal activity of the target compound is screened. The dosage refers to the applied dosage of the pyrithiobac-sodium in the cotton field, i.e., 45 g a.i/hm^2, and the stem and leaf spray method is used for treatment.

The subject of a further data set is Chenopodium album. Described as above. It is filed as in vivo. As to conditions: fresh weight inhibition rate, 45 g a.i/hm^2, stem and leaf spray, 21st day after applying. The procedure:
as §1, §2, §3

The test system of a further data set is Echinochloa crusgalli. The data set is described as above. It is filed as in vivo. As to conditions: fresh weight inhibition rate, 45 g a.i/hm^2, stem and leaf spray, 21st day after applying. The method, then:
as §1, §2, §3

For another data set, the system named is Setaria viridis. The description is as above. It is filed as in vivo. The note with it: fresh weight inhibition rate, 45 g a.i/hm^2, stem and leaf spray, 21st day after applying. The method, then: as §1, §2, §3
Another data set concerns Amaranthus retroflexus. The data set is described as above. It counts as in vivo. As to conditions: fresh weight inhibition rate, 45 g a.i/hm^2, stem and leaf spray, 21st day after applying. The method, then: as §1, §2, §3
The next data set deals with Eleusine indica. The description is as above. It is filed as in vivo. As to conditions: fresh weight inhibition rate, 45 g a.i/hm^2, stem and leaf spray, 21st day after applying. The procedure: as §1, §2, §3

Usually melting point stands for the temperature, or range, at which the solid turns liquid.

The compound `COc1cc(OC)nc(Sc2cccc(Cl)c2C(=O)O/N=C(\C)c2ccccc2C)n1` [A, (E)-1-(o-tolyl)ethan-1-one O-(2-chloro-6-((4,6-dimethoxypyrimidin-2-yl)thio)benzoyl) oxime] registered a melting point of 108 to 111 °C. The “Inhibition rate (%) Portulaca oleracea” value in the data set with Portulaca oleracea is reported as 35.4%. The “Inhibition rate (%) Chenopodium album” value in the data set with Chenopodium album was 100%. The “Inhibition rate (%) Echinochloa crusgalli” value in the data set with Echinochloa crusgalli stood at 35.6%. The “Inhibition rate (%) Setaria viridis” value in the data set on Setaria viridis is on record as 31.3%. Also, the “Inhibition rate (%) Amaranthus retroflexus” value with Amaranthus retroflexus is on record as 92.0%. In the data set on Eleusine indica, the “Inhibition rate (%) Eleusine indica” value was found to be 67.6%.
For `COc1cc(OC)nc(Sc2cccc(Cl)c2C(=O)O/N=C(\C)c2cccc(C)c2)n1` [B, (E)-1-(m-tolyl)ethan-1-one O-(2-chloro-6-((4,6-dimethoxypyrimidin-2-yl)thio)benzoyl) oxime], the melting point lay in the range of 84 to 88 °C. The “Inhibition rate (%) Portulaca oleracea” value in the data set with Portulaca oleracea was 60.7%. Also, in the data set on Chenopodium album, the “Inhibition rate (%) Chenopodium album” value was 87.0%. Further, the “Inhibition rate (%) Echinochloa crusgalli” value with Echinochloa crusgalli turned out to be 30.3%. Also, the “Inhibition rate (%) Setaria viridis” value in the data set with Setaria viridis worked out at 53.0%. For the same compound, the “Inhibition rate (%) Amaranthus retroflexus” value in the data set on Amaranthus retroflexus was 93.5%. In addition, the “Inhibition rate (%) Eleusine indica” value with Eleusine indica came out at 53.0%.
With `COc1cc(OC)nc(Sc2cccc(Cl)c2C(=O)O/N=C(\C)c2ccc(C)cc2)n1` [C, (E)-1-(p-tolyl)ethan-1-one O-(2-chloro-6-((4,6-dimethoxypyrimidin-2-yl)thio)benzoyl) oxime], the melting point lay in the range of 115 to 119 °C. In the data set with Portulaca oleracea, the “Inhibition rate (%) Portulaca oleracea” value is on record as 40.9%. For the same compound, in the data set with Chenopodium album, the “Inhibition rate (%) Chenopodium album” value worked out at 95.8%. For the same compound, the “Inhibition rate (%) Echinochloa crusgalli” value with Echinochloa crusgalli is on record as 37.5%. Further, the “Inhibition rate (%) Setaria viridis” value in the data set with Setaria viridis worked out at 39.3%. Further, the “Inhibition rate (%) Amaranthus retroflexus” value with Amaranthus retroflexus came to 90.4%. For the same compound, in the data set with Eleusine indica, the “Inhibition rate (%) Eleusine indica” value is recorded as 52.5%.
`COc1cc(OC)nc(Sc2cccc(Cl)c2C(=O)O/N=C(\C)c2ccccc2C(F)(F)F)n1` [D, (E)-1-(2-(trifluoromethyl)phenyl)ethan-1-one O-(2-chloro-6-((4,6-dimethoxypyrimidin-2-yl)thio)benzoyl)oxime] showed a melting point of 82 to 85 °C. Moreover, the “Inhibition rate (%) Portulaca oleracea” value in the data set on Portulaca oleracea is on record as 69.2%. The “Inhibition rate (%) Chenopodium album” value in the data set on Chenopodium album was 89.6%. In the data set on Echinochloa crusgalli, the “Inhibition rate (%) Echinochloa crusgalli” value turned out to be 78.3%. For the same compound, in the data set with Setaria viridis, the “Inhibition rate (%) Setaria viridis” value was 33.7%. Also, in the data set on Amaranthus retroflexus, the “Inhibition rate (%) Amaranthus retroflexus” value is 80.2%. For the same compound, the “Inhibition rate (%) Eleusine indica” value in the data set with Eleusine indica stood at 52.4%.
Take `COc1cc(OC)nc(Sc2cccc(Cl)c2C(=O)O/N=C(\C)c2cccc(C(F)(F)F)c2)n1` [E, (E)-1-(3-(trifluoromethyl)phenyl)ethan-1-one O-(2-chloro-6-((4,6-dimethoxypyrimidin-2-yl)thio)benzoyl)oxime]: the melting point was in the range of 81 to 86 °C. Besides, the “Inhibition rate (%) Portulaca oleracea” value in the data set on Portulaca oleracea worked out at 64.6%. Further, the “Inhibition rate (%) Chenopodium album” value in the data set on Chenopodium album is listed as 82.4%. The “Inhibition rate (%) Echinochloa crusgalli” value in the data set with Echinochloa crusgalli stood at 79.5%. In the data set on Setaria viridis, the “Inhibition rate (%) Setaria viridis” value was 27.8%. Also, in the data set with Amaranthus retroflexus, the “Inhibition rate (%) Amaranthus retroflexus” value stood at 82.4%. Moreover, the “Inhibition rate (%) Eleusine indica” value in the data set on Eleusine indica is recorded as 37.0%.
`COc1cc(OC)nc(Sc2cccc(Cl)c2C(=O)O/N=C(\C)c2ccc(C(F)(F)F)cc2)n1` [F, (E)-1-(4-(trifluoromethyl)phenyl)ethan-1-one O-(2-chloro-6-((4,6-dimethoxypyrimidin-2-yl)thio)benzoyl)oxime] showed a melting point of 86 to 90 °C. Also, the “Inhibition rate (%) Portulaca oleracea” value in the data set with Portulaca oleracea was 84.4%. Besides, in the data set on Chenopodium album, the “Inhibition rate (%) Chenopodium album” value was determined as 85.1%. The “Inhibition rate (%) Echinochloa crusgalli” value in the data set on Echinochloa crusgalli is listed as 100%. In addition, the “Inhibition rate (%) Setaria viridis” value in the data set on Setaria viridis amounted to 56.0%. For the same compound, the “Inhibition rate (%) Amaranthus retroflexus” value with Amaranthus retroflexus was 97.5%. Also, the “Inhibition rate (%) Eleusine indica” value in the data set with Eleusine indica is on record as 80.7%.
With `COc1cc(OC)nc(Sc2cccc(Cl)c2C(=O)O/N=C(\C)c2ccccc2[N+](=O)[O-])n1` [G, (E)-1-(2-nitrophenyl)ethan-1-one O-(2-chloro-6-((4,6-dimethoxypyrimidin-2-yl)thio)benzoyl)oxime], the melting point fell in the range of 130 to 134 °C. Moreover, the “Inhibition rate (%) Portulaca oleracea” value with Portulaca oleracea stood at 89.4%. Moreover, the “Inhibition rate (%) Chenopodium album” value in the data set with Chenopodium album turned out to be 95.7%. Further, in the data set with Echinochloa crusgalli, the “Inhibition rate (%) Echinochloa crusgalli” value amounted to 90.4%. Besides, in the data set with Setaria viridis, the “Inhibition rate (%) Setaria viridis” value stood at 60.3%. For the same compound, the “Inhibition rate (%) Amaranthus retroflexus” value with Amaranthus retroflexus worked out at 100%. Moreover, the “Inhibition rate (%) Eleusine indica” value with Eleusine indica turned out to be 84.6%.
In the case of `COc1cc(OC)nc(Sc2cccc(Cl)c2C(=O)O/N=C(\C)c2cccc([N+](=O)[O-])c2)n1` [H, (E)-1-(3-nitrophenyl)ethan-1-one O-(2-chloro-6-((4,6-dimethoxypyrimidin-2-yl)thio)benzoyl)oxime], the melting point was in the range of 155 to 159 °C. Further, the “Inhibition rate (%) Portulaca oleracea” value with Portulaca oleracea is recorded as 85.9%. Further, in the data set with Chenopodium album, the “Inhibition rate (%) Chenopodium album” value was found to be 90.4%. Further, the “Inhibition rate (%) Echinochloa crusgalli” value with Echinochloa crusgalli worked out at 87.7%. The “Inhibition rate (%) Setaria viridis” value in the data set with Setaria viridis is 64.6%. In the data set on Amaranthus retroflexus, the “Inhibition rate (%) Amaranthus retroflexus” value came out at 100%. For the same compound, the “Inhibition rate (%) Eleusine indica” value in the data set with Eleusine indica was 88.5%.
As to `COc1cc(OC)nc(Sc2cccc(Cl)c2C(=O)O/N=C(\C)c2ccc([N+](=O)[O-])cc2)n1` [I, (E)-1-(4-nitrophenyl)ethan-1-one O-(2-chloro-6-((4,6-dimethoxypyrimidin-2-yl)thio)benzoyl)oxime], the melting point is 153 to 157 °C. The “Inhibition rate (%) Portulaca oleracea” value with Portulaca oleracea is on record as 94.5%. The “Inhibition rate (%) Chenopodium album” value in the data set on Chenopodium album is 96.8%. In addition, the “Inhibition rate (%) Echinochloa crusgalli” value in the data set with Echinochloa crusgalli was found to be 95.7%. The “Inhibition rate (%) Setaria viridis” value in the data set on Setaria viridis is 75.1%. Also, in the data set on Amaranthus retroflexus, the “Inhibition rate (%) Amaranthus retroflexus” value is listed as 100%. Moreover, the “Inhibition rate (%) Eleusine indica” value in the data set with Eleusine indica amounted to 89.7%.
On to `COc1cc(OC)nc(Sc2cccc(Cl)c2C(=O)O/N=C(\C)c2ccccc2F)n1` [J, (E)-1-(2-fluorophenyl)ethan-1-one O-(2-chloro-6-((4,6-dimethoxypyrimidin-2-yl)thio)benzoyl) oxime], for which the melting point lay in the range of 87 to 91 °C. The “Inhibition rate (%) Portulaca oleracea” value in the data set on Portulaca oleracea was 90.2%. The “Inhibition rate (%) Chenopodium album” value in the data set with Chenopodium album was determined as 98.4%. The “Inhibition rate (%) Echinochloa crusgalli” value with Echinochloa crusgalli came to 100%. Also, the “Inhibition rate (%) Setaria viridis” value in the data set with Setaria viridis amounted to 77.2%. Further, the “Inhibition rate (%) Amaranthus retroflexus” value in the data set with Amaranthus retroflexus stood at 100%. Further, the “Inhibition rate (%) Eleusine indica” value in the data set on Eleusine indica was 90.3%.
For `COc1cc(OC)nc(Sc2cccc(Cl)c2C(=O)O/N=C(\C)c2cccc(F)c2)n1` [K, (E)-1-(3-fluorophenyl)ethan-1-one O-(2-chloro-6-((4,6-dimethoxypyrimidin-2-yl)thio)benzoyl) oxime], the melting point is 103 to 107 °C. For the same compound, in the data set with Portulaca oleracea, the “Inhibition rate (%) Portulaca oleracea” value was 93.3%. Further, the “Inhibition rate (%) Chenopodium album” value with Chenopodium album came to 100%. Besides, the “Inhibition rate (%) Echinochloa crusgalli” value in the data set on Echinochloa crusgalli turned out to be 100%. The “Inhibition rate (%) Setaria viridis” value in the data set on Setaria viridis amounted to 72.9%. For the same compound, the “Inhibition rate (%) Amaranthus retroflexus” value in the data set with Amaranthus retroflexus is recorded as 100%. The “Inhibition rate (%) Eleusine indica” value in the data set on Eleusine indica is recorded as 92.0%.
Turning to `COc1cc(OC)nc(Sc2cccc(Cl)c2C(=O)O/N=C(\C)c2ccc(F)cc2)n1` [L, (E)-1-(4-fluorophenyl)ethan-1-one O-(2-chloro-6((4,6-dimethoxypyrimidin-2-yl)thio)benzoyl) oxime], the melting point is 102 to 105 °C. In the data set on Portulaca oleracea, the “Inhibition rate (%) Portulaca oleracea” value is listed as 90.5%. Moreover, the “Inhibition rate (%) Chenopodium album” value with Chenopodium album was 100%. The “Inhibition rate (%) Echinochloa crusgalli” value in the data set on Echinochloa crusgalli was found to be 100%. For the same compound, the “Inhibition rate (%) Setaria viridis” value in the data set on Setaria viridis was 75.4%. The “Inhibition rate (%) Amaranthus retroflexus” value in the data set with Amaranthus retroflexus was 100%. The “Inhibition rate (%) Eleusine indica” value in the data set on Eleusine indica is on record as 87.0%.
`COc1ccc(/C(C)=N/OC(=O)c2c(Cl)cccc2Sc2nc(OC)cc(OC)n2)c(OC)c1` [M, (E)-1-(2,4-dimethoxyphenyl)ethan-1-one O-(2-chloro-6-((4,6-dimethoxypyrimidin-2-yl)thio)benzoyl)oxime]: the melting point is 125 to 129 °C. In addition, the “Inhibition rate (%) Portulaca oleracea” value with Portulaca oleracea was determined as 90.9%. The “Inhibition rate (%) Chenopodium album” value with Chenopodium album is reported as 100%. The “Inhibition rate (%) Echinochloa crusgalli” value in the data set with Echinochloa crusgalli turned out to be 100%. In the data set with Setaria viridis, the “Inhibition rate (%) Setaria viridis” value was determined as 77.2%. Further, the “Inhibition rate (%) Amaranthus retroflexus” value with Amaranthus retroflexus stood at 100%. The “Inhibition rate (%) Eleusine indica” value in the data set on Eleusine indica came out at 85.6%.
For `COc1cc(OC)nc(Sc2cccc(Cl)c2C(=O)O)n1` [Pyrithiobac-sodium, reference compound], in the data set with Portulaca oleracea, the “Inhibition rate (%) Portulaca oleracea” value turned out to be 96.8%. Moreover, the “Inhibition rate (%) Chenopodium album” value in the data set with Chenopodium album turned out to be 93.9%. In addition, in the data set with Echinochloa crusgalli, the “Inhibition rate (%) Echinochloa crusgalli” value was found to be 60.6%. Besides, the “Inhibition rate (%) Setaria viridis” value in the data set on Setaria viridis was 65.4%. Moreover, the “Inhibition rate (%) Amaranthus retroflexus” value in the data set on Amaranthus retroflexus is on record as 95.2%. Moreover, in the data set with Eleusine indica, the “Inhibition rate (%) Eleusine indica” value is on record as 44.7%.
